# Experimental data reported in US12240854B2, “TRAF 6 inhibitors” (Helmholtz Zentrum München - Deutsches Forschungszentrum für …, priority 2018, dated 2025).
# Entries after “also recorded” stand apart in the source; their conditions may differ.
# Legend:
# [1] = system: NF-κB target genes ICAM-1 and A20 in MEF cells; assay: mRNA expression (qRT-PCR) in MEF cells; type: cell-based, mouse
# Protocol: For MEF cells, 1.2×10^5 cells per sample were seeded, treated with compound for 6 hours and stimulated with either IL-1β or TNFα for 60 minutes. Jurkat T-cells and primary mouse CD4^+ T-cells were seeded at 2×10^5 cells per sample, also treated with compound for 6 hours and stimulated with PMA/lonomycin for 3 hours. RNA was isolated according to the manufacturer's protocol of the Qiagen RNeasy Kit (MEF cells) or the STRATEC INVITRAP® SPIN UNIVERSAL RNA MINI KIT (Jurkat T-cells). The isolation of mRNA from […] white adipose tissue from DIO mice was performed using TRIzol® Reagent according to manufacturer's instruction. To clear the isolated RNA from genomic DNA, samples (up to 5 μg RNA) were treated with RQ1 RNase-Free DNaseI (Promega) as described in the technical manual. For the reverse transcription of RNA into cDNA, the DNaseI digested RNA samples were processed using the SuperScript III First Strand cDNA Synthesis System (Invitrogen/ThermoFisher Scientific) following the manufacturer's protocol. […] For quantification of cDNA in the samples, the LightCylcer480 (Roche) and the KAPA SYBR FAST qPCR Kit were used. For relative quantification, the ΔΔCp method first described by Pfaffl (Pfaffl, M. W., A new mathematical model for relative quantification in real-time RT-PCR. Nucleic Acids Res, 2001. 29(9): p. e45) was applied.
# [2] = target: T1, ITCH (Homo sapiens, UniProt Q96J02); assay: In vitro ubiquitination assay, ITCH ubiquitin ligase kit; type: biochemical
# T1 construct: purchased Boston Biochem
# T1 sequence (Q96J02 whole entry): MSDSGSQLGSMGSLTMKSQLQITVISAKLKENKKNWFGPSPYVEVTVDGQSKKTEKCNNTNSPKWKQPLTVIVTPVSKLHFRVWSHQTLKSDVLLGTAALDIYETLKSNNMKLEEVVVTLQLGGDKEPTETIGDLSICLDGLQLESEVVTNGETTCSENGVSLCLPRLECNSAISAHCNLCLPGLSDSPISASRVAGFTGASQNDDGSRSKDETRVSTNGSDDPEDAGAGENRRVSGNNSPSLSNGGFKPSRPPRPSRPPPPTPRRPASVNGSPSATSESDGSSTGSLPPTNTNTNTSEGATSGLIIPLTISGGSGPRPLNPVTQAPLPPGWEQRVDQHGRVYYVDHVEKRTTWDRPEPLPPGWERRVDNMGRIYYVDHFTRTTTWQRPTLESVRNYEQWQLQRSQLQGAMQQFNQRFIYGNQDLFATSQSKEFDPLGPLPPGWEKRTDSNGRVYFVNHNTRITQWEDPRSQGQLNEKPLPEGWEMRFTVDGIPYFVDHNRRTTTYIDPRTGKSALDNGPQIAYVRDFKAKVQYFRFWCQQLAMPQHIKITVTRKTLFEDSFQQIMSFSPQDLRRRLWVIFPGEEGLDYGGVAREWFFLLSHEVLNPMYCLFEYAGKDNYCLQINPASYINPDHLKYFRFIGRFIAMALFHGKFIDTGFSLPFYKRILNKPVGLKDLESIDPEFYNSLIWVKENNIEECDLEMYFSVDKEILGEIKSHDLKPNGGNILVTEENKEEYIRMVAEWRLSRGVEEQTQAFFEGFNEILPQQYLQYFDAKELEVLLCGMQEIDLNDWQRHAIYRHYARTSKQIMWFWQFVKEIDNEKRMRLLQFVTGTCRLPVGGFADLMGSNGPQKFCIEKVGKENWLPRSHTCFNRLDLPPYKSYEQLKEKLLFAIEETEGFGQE
# Protocol: (§1) For analysis of cIAP1, MDM2, TRIM63, RNF4, ITCH and E6AP mediated poly-ubiquitination, the respective ubiquitin ligase kit from Boston Biochem (K-102, K-260, K-200B, K-220, K-240 and K-270) was used. Here, reaction buffer, E1, E2 and E3 enzyme (and p53 substrate in case of MDM2) were mixed and pre-incubated with compound or DMSO for 5 minutes at room temperature before adding Mg^2+-ATP and mono-ubiquitin for reaction start. Ubiquitination was visualized by Western Blot analyses.
# [3] = system: TRAF6 auto-ubiquitination in Jurkat T-cells; assay: Immunoprecipitation of TRAF6 for endogenous ubiquitination, Jurkat T-cells; type: cell-based, human; settings: PMA/Ionomycin
# [4] = system: CYP450; assay: ADME: CYP450 inhibition; type: in vitro ADME
# Protocol: (§2) All ADME (plasma stability, plasma protein binding, microsomal stability, Log D, Caco-2 assay, CYP450 inhibition and hERG predictor assay) as well as pharmacokinetic studies (Tmax, Cmax, AUC0-240min, Mean Residence Time, Elimination half life, Elimination rate constant, Volume of Distribution and Clearance) of C25-140 (compound 3) were conducted by Bienta Enamine Biology Services of Bienta/Enamine Ltd.
# [5] = target: T2, MDM2 (Homo sapiens, UniProt Q00987); assay: In vitro ubiquitination assay, MDM2 ubiquitin ligase kit (p53 substrate); type: biochemical; settings: K48 chain formation
# T2 construct: purchased Boston Biochem
# T2 sequence (Q00987 whole entry): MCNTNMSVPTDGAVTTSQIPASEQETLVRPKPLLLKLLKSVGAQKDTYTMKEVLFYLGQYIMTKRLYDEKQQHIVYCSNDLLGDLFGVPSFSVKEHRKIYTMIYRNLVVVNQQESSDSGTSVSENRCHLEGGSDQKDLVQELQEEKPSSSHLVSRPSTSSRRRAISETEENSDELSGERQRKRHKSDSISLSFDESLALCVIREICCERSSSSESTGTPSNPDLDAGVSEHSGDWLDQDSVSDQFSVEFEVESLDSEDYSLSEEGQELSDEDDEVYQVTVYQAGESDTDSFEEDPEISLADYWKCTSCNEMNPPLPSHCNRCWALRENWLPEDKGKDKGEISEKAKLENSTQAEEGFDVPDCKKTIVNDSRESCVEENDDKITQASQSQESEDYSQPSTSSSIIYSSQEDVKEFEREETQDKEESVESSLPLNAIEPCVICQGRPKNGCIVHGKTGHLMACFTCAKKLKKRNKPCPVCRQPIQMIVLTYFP
# Protocol: as §1
# [6] = system: IKK kinase activity in MEF cells; assay: IKK kinase assay in MEF cells; type: cell-based, mouse
# Protocol: For MEF cells, 5.5×10^5 cells were seeded, then treated with compound for 6 hours and eventually stimulated with IL-1β or TNFα for 8 minutes. 1×10^6 Jurkat T-cells were treated with compound for 6 hours and finally stimulated with PMA (400 ng/ml) and lonomycin (600 ng/ml) for 8 minutes. After cell lysis in Co-IP lysis buffer (150 mM NaCl; 25 mM Hepes (pH 7.5); 0.2% NP-40; 1 mM Glycerol; 10 mM NaF; 8 mM β-Glycerophosphat; 1 mM DTT; 300 μM Sodium-vanadate; complete protease inhibitor), input samples were taken and the supernatant was then incubated with 6 μL IKKγ antibody FL-419 (Santa Cruz Biotechnology). Upon incubation with Protein-G-Sepharose beads (GE Healthcare), beads were washed in Co-IP wash buffer (150 mM NaCl; 25 mM Hepes (pH 7.5); 0.2% NP-40; 1 mM Glycerol) and transferred into kinase reaction buffer ([…] HEPES pH7.9; 10 mM MgCl2; 20 μM ATP; 20 mM β-Glycerophosphat; 200 μM Sodium-Vanadate; 1 mM DTT) supplemented with […] GST-IκBα (1-53) and 0.5 μL ^32P-γ-ATP. After 30 minutes incubation at 37° C., reaction was stopped and analyzed by autoradiography as well as Western Blot after separation on SDS-PAGE.
# [7] = target: T3, TRAF6 (Homo sapiens, UniProt Q9Y4K3); assay: In vitro ubiquitination assay (Western blot), TRAF6 with Ubc13/Uev1a; type: biochemical
# T3 construct: GST (N, cleaved yes); made in house; host or cells: E. coli BL21 codon plus RIPL (TRAF6); E1, E2 complex and ubiquitin from Boston Biochem
# T3 sequence (Q9Y4K3 with tags, fused parts or gaps): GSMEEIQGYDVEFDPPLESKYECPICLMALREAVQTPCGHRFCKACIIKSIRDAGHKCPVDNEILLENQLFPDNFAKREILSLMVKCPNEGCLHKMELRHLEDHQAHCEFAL
# Protocol: The ability of TRAF6 to form K63-linked poly-ubiquitin chains in conjunction with Ubc13 was analyzed after compound treatment. Therefore, untagged TRAF6WT and TRAF6D57K, respectively were recombinantly purified. 0.125 μM of TRAF6 protein was pre-incubated with DMSO or compound in a total volume of 100 μL in K63 assay buffer ([…] Tris —HCl pH 7.6; […] MgCL2; […] creatine phosphate; 0.3 U/mL inorganic pyrophosphatase; 0.3 U/mL creatine phosphokinase) for 30 minutes at room temperature. Small aliquots for input samples were taken. A master mix containing 0.01 μM E1-activating enzyme (UBE1) (Boston Biochem), 0.2 μM E2-conjugating enzyme complex (Ubc13/Uev1a) (Boston Biochem), 1 mM ZnCl2, 2 mM ATP und 4 μM mono-ubiquitin (Boston Biochem) was added to the TRAF6 protein and the reaction mixture was incubated for 120 minutes at 37° C. The reaction was stopped by adding 4×SDS loading buffer and boiling at 95° C. for 5 minutes. The input samples were analyzed using the Pierce Silver Stain Kit (Thermo Fisher Scientific). Ubiquitination was detected in Western Blot analysis using an ubiquitin antibody.
# [8] = target: T4, Interaction of Ubc13 with Uev1a (Homo sapiens, UniProt P61088+Q13404); assay: Ubc13-Uev1a interaction (FIG. 2E); type: binding
# T4 construct: GST (N); His; made in house
# T4 sequence (P61088 with tags, fused parts or gaps): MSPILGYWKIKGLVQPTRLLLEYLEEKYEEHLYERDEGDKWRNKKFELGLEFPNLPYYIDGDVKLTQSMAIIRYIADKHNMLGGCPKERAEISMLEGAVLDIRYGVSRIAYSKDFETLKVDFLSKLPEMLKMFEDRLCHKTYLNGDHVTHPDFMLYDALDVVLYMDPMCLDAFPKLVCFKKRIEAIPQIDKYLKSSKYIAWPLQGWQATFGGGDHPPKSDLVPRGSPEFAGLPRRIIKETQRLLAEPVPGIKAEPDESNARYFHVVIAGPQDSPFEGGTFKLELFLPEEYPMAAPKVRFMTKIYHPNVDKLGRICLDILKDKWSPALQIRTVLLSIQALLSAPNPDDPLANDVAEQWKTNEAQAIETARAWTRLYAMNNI
# T4 sequence (Q13404 with tags, fused parts or gaps isoform Q13404-7): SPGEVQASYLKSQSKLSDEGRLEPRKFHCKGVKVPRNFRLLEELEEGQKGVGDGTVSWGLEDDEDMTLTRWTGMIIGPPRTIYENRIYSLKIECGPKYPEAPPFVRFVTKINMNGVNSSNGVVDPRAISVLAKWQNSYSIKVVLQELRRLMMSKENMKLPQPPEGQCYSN
# [9] = ADME: plasma protein binding; type: in vitro ADME
# Protocol: as §2
# [10] = Pharmacokinetic studies (IV, PO, IP); type: in vivo
# Protocol: as §2
# The inventors also tested the pharmacokinetics (PK) of C25-140 after intravenous (IV), peroral (PO) and intraperitoneal (IP) injection of each 10 mg/kg compound. All the analyzed data are summarized in FIG. 9B and the concentration/time-course graph for IP administration is shown in FIG. 9C.
smiles,measurement,setting,value
"Cc1nn(-c2ccc3nnc(C)n3n2)c(C)c1CCC(=O)N1CCC(Cc2ccccc2)CC1 [Example C25-140, 1-(4-Benzylpiperidin-1-yl)-3-(3,5-dimethyl-1-(3-methyl-[1,2,4]-triazolo-[4,3-b]-pyridazin-6-yl)-1H-pyrazol-4-yl)-propan-1-one]",mRNA expression of target genes (ICAM-1 and A20),[1]; IL-1β stimulation,diminished target gene expression; also recorded: impaired
same,mRNA expression of target genes (ICAM-1 and A20),[1]; TNFα stimulation,also affects
same,ITCH auto-ubiquitination,[2],not influenced; also recorded: not affected
same,TRAF6 auto-ubiquitination upon TCR stimulation,[3],dose-dependently diminished; also recorded: dose-dependently reduced
same,CYP450 inhibition,[4],some inhibitory potential on selected CYPs
same,p53 ubiquitination by MDM2,[5],not influenced; also recorded: not affected
same,"IKK kinase activity, phosphorylation of IκBα",[6]; IL-1β stimulation,decreased IKK kinase activity; also recorded: decreased phosphorylation of IκBα
same,"IKK kinase activity, phosphorylation of IκBα",[6]; TNFα stimulation,also affects
same,ability of TRAF6 and Ubc13 to form free poly-ubiquitin chains,[7],dose-dependently diminished TRAF6 E3 ligase activity; also recorded: dose-dependently impairs
same,interaction of Ubc13 with Uev1a,[8],did not affect binding; also recorded: not affected
same,plasma protein binding,[9],decent good plasma protein binding capacity
same,adverse effects on animals during the PK studies,"[10]; 10 mg/kg IV, PO, IP",no obvious adverse effects
same,in vivo half life (in words),"[10]; IV, PO, IP",moderate in vivo half life
same,initial distribution phase (in words),"[10]; IV, PO, IP",rapid initial distribution phase
same,bioavailability (in words),[10]; in vivo,good bioavailability
